We go through 40 molecules from patent US4751302A, “Indazole derivatives” (priority 1982, dated 1988).

One data set can be described thus: in vivo. To be noted: mouse, ip, intraperitoneal, hydrochloride, male ddy mice.
Data set [1] relates to Carrageenin edema in rat's paw. Description: Carrageenin Edema Test in Rat's Paw (anti-inflammatory activity, Table 1). The format is in vivo. The following applies: 100 mg/kg oral, hydrochloride, rat. As to the method: An anti-inflammatory activity was measured by orally administering 100 mg/kg of a hydrochloride of the indazole derivative of this invention as set forth in Table 1 to an animal in accordance with the standard method of Carrageenin Edema Test in Rat's Paw described in C. A. Winter et al., Proc. Soc. Exp. Biol. Med., 111, 544 (1962).
On the technique in general: Carrageenan injected into the paw causes an acute inflammation.

SMILES strings stand for the structures.

In turn, `CCN(CC)CCCNc1n[nH]c2cc(Cl)ccc12` [(47), 3-(3-Diethylaminopropylamino)-6-chloroindazole] yielded an LD50 in the data set “in vivo” of 278 mg/kg. In data set [1], this molecule displayed an inhibition in vivo at 100 mg/kg of 58%.
For `CC1CCCCN1CCCNc1nn(CCCN2CCCC2)c2ccc(O)cc12` (centres unmarked) [(143), 1-(3-Pyrrolidinopropyl)-3-[3-(2-methylpiperidino)propylamino]-5-hydroxyindazole] the same measures were 291 mg/kg and 30%.
Taken in the same sequence, the figures for `CCN(CC)CCCn1nc(N)c2c(Cl)cccc21` [(1), 1-(3-Diethylaminopropyl)-3-amino-4-chloroindazole] were 171 mg/kg and 58%.
For `CC1CCCCN1CCCNc1n[nH]c2ccc(Cl)cc12` (centres unmarked) [(59), 3-[3-(2-Methylpiperidino)propylamino]-5-chloroindazole] the same measures were 210 mg/kg and 63%.
Molecule `ClC1CCN(CCCNc2nn(CCCN3CCOCC3)c3ccccc23)CC1` [(157), 1-(3-Morpholinopropyl)-3-[3-(4-chloropiperidino)propylamino]indazole] had an LD50 in “in vivo” of 251 mg/kg. In data set [1], this molecule returned an inhibition in vivo at 100 mg/kg of 29%.
`CC1CCCC(C)N1CCCNc1nn(CCCN2CCOCC2)c2ccccc12` (centres unmarked) [(156), 1-(3-Morpholinopropyl)-3-[3-(2,6-dimethylpiperidino)propylamino]indazole]: the LD50 in the data set “in vivo” turned out to be 301 mg/kg. In data set [1], the inhibition in vivo at 100 mg/kg was 32%.
For `CCN(CC)CCCn1nc(N)c2cccc(O)c21` [(26), 1-(3-Diethylaminopropyl)-3-amino-7-hydroxyindazole] the same measures were 297 mg/kg and 57%.
For `Nc1nn(CCCCCCN2CCCCC2)c2ccc(Cl)cc12` [(12), 1-(6-Piperidinohexyl)-3-amino-5-chloroindazole] the same measures were 337 mg/kg and 28%.
Taken in the same sequence, the figures for `CCN(CC)CCCNc1nn(CCCN(CC)CC)c2c(N)cc(N)cc12` [(125), 1-(3-Diethylaminopropyl)-3-(3-diethylaminopropylamino)-5,7-diaminoindazole] were 320 mg/kg and 28%.
In the case of `CC(CCNc1n[nH]c2ccc(O)cc12)N(C)C` (centres unmarked) [(75), 3-(3-Dimethylaminobutylamino)-5-hydroxyindazole], in “in vivo”, the LD50 came out at 234 mg/kg. In data set [1], this molecule had an inhibition in vivo at 100 mg/kg of 34%.
In “in vivo”, `CCCCN(CCCC)CCCNc1nn(CCCN(CC)CC)c2ccc(O)cc12` [(128), 1-(3-Diethylaminopropyl)-3-(3-di-n-butylaminopropylamino)-5-hydroxyindazole] displayed an LD50 of 170 mg/kg. Moreover, the inhibition in vivo at 100 mg/kg in data set [1] is 31%.
With `CC(CCNc1n[nH]c2ccc(Cl)cc12)N(C)C` (centres unmarked) [(53), 3-(3-Dimethylaminobutylamino)-5-chloroindazole], in the data set “in vivo”, the LD50 is 313 mg/kg. This molecule also returned an inhibition in vivo at 100 mg/kg in data set [1] of 48%.
Taken in the same sequence, the figures for `CC(CCn1nc(NCCCN2CCCCC2)c2cc(Cl)ccc21)N(C)C` (centres unmarked) [(109), 1-(3-Dimethylaminobutyl)-3-(3-piperidinopropylamino)-5-chloroindazole] were 387 mg/kg and 29%.
`Clc1ccc2[nH]nc(NCCCCCCN3CCCCC3)c2c1` [(56), 3-(6-Piperidinohexylamino)-5-chloroindazole] yielded an LD50 in “in vivo” of 145 mg/kg. This molecule had an inhibition in vivo at 100 mg/kg in data set [1] of 29%.
The molecule `CC1CCCCN1CCCNc1nn(CCCN2CCCC2)c2ccc(Cl)cc12` (centres unmarked) [(113), 1-(3-Pyrrolidinopropyl)-3-[3-(2-methylpiperidino)propylamino]-5-chloroindazole] gave an LD50 in the data set “in vivo” of 221 mg/kg. Also, in data set [1], the inhibition in vivo at 100 mg/kg amounted to 31%.
The molecule `Clc1ccc2c(c1)c(NCCCN1CCC(Cl)CC1)nn2CCCN1CCOCC1` [(117), 1-(3-Morpholinopropyl)-3-[3-(4-chloropiperidino)propylamino]-5-chloroindazole] showed an LD50 in the data set “in vivo” of 291 mg/kg. The molecule also came in with an inhibition in vivo at 100 mg/kg in data set [1] of 30%.
Taken in the same sequence, the figures for `CCN(CC)CCCNc1n[nH]c2cccc(Cl)c12` [(45), 3-(3-Diethylaminopropylamino)-4-chloroindazole] were 271 mg/kg and 61%.
`CN1CCN(CCCNc2nn(CCCN3CCCC3)c3ccc(Cl)cc23)CC1` [(114), 1-(3-Pyrrolidinopropyl)-3-[3-(4-methylpiperazino)propylamino]-5-chloroindazole] displayed an LD50 in the data set “in vivo” of 299 mg/kg. Moreover, the inhibition in vivo at 100 mg/kg in data set [1] stood at 30%.
In turn, `CCN(CC)CCCn1nc(N)c2cc(O)ccc21` [(24), 1-(3-Diethylaminopropyl)-3-amino-5-hydroxyindazole] returned an LD50 in the data set “in vivo” of 161 mg/kg. The molecule also yielded an inhibition in vivo at 100 mg/kg in data set [1] of 53%.
For `CC(CCNc1nn(CCC(C)N2CCCCC2)c2ccc(O)cc12)N(C)C` (centres unmarked) [(137), 1-(3-Piperidinobutyl)-3-(3-dimethylaminobutylamino)-5-hydroxyindazole] the same measures were 258 mg/kg and 21%.
`OC1CCN(CCCNc2nn(CCCN3CCOCC3)c3ccccc23)CC1` [(158), 1-(3-Morpholinopropyl)-3-[3-(4-hydroxypiperidino)propylamino]indazole]: the median lethal dose (LD50) in the data set “in vivo” amounted to 288 mg/kg. The molecule further displayed an inhibition in vivo at 100 mg/kg in data set [1] of 30%.
Taken in the same sequence, the figures for `CC(CCn1nc(N)c2cc(O)ccc21)N(C)C` (centres unmarked) [(31), 1-(3-Dimethylaminobutyl)-3-amino-5-hydroxyindazole] were 241 mg/kg and 35%.
Consider `CCCCN(CCCC)CCCn1nc(N)c2cc(O)ccc21` [(30), 1-(3-Di-n-butylaminopropyl)-3-amino-5-hydroxyindazole], for which the median lethal dose (LD50) in the data set “in vivo” came to 255 mg/kg. This molecule also showed an inhibition in vivo at 100 mg/kg in data set [1] of 54%.
For `CC(CCNc1nn(CCCN2CCCCC2)c2ccc(Cl)cc12)N1CCCCC1` (centres unmarked) [(103), 1-(3-Piperidinopropyl)-3-(3-piperidinobutylamino)-5-chloroindazole] the same measures were 261 mg/kg and 29%.
Taken in the same sequence, the figures for `Nc1nn(CCCN2CCOCC2)c2ccccc12` [(149), 1-(3-Morpholinopropyl)-3-aminoindazole] were 261 mg/kg and 50%.
Taken in the same sequence, the figures for `Clc1ccc2[nH]nc(NCCCN3CCCC3)c2c1` [(65), 3-(3-Pyrrolidinopropylamino)-5-chloroindazole] were 136 mg/kg and 36%.
For the molecule `Nc1nn(CCCN2CCOCC2)c2ccc(Cl)cc12` [(22), 1-(3-Morpholinopropyl)-3-amino-5-chloroindazole], the LD50 in the data set “in vivo” was 388 mg/kg. In data set [1], this molecule yielded an inhibition in vivo at 100 mg/kg of 46%.
For `CCN(CC)C(CCn1nc(N)c2cc(Cl)ccc21)CC(C)C` (centres unmarked) [(10), 1-(3-Diethylamino-5-methylhexyl)-3-amino-5-chloroindazole] the same measures were 239 mg/kg and 49%.
Turning to `CCN(CC)CCCNc1nn(CCC(C)N2CCCCC2)c2ccc(O)cc12` (centres unmarked) [(134), 1-(3-Piperidinobutyl)-3-(3-diethylaminopropylamino)-5-hydroxyindazole], the LD50 in the data set “in vivo” amounted to 349 mg/kg. In addition, testing at 100 mg/kg in data set [1] gave an inhibition in vivo of 29%.
For `Nc1nn(CCCN2CCOCC2)c2ccc(O)cc12` [(44), 1-(3-Morpholinopropyl)-3-amino-5-hydroxyindazole] the same measures were 368 mg/kg and 46%.
In the case of `CC1CCCCN1CCCn1nc(N)c2cc(Cl)ccc21` (centres unmarked) [(15), 1-[3-(2-Methylpiperidino)propyl]-3-amino-5-chloroindazole], in the data set “in vivo”, the LD50 was 250 mg/kg. Moreover, the inhibition in vivo at 100 mg/kg in data set [1] was determined as 50%.
Taken in the same sequence, the figures for `CC(CCn1nc(NCCC(C)N2CCCCC2)c2cc(O)ccc21)N(C)C` (centres unmarked) [(140), 1-(3-Dimethylaminobutyl)-3-(3-piperidinobutylamino)-5-hydroxyindazole] were 313 mg/kg and 27%.
For `CCN(CC)CCCn1nc(N)c2cc(I)ccc21` [(27), 1-(3-Diethylaminopropyl)-3-amino-5-iodoindazole] the same measures were 281 mg/kg and 57%.
Taken in the same sequence, the figures for `Nc1nn(CCCN2CCC(O)CC2)c2ccc(O)cc12` [(39), 1-[3-(4-Hydroxypiperidino)propyl]-3-amino-5-hydroxyindazole] were 311 mg/kg and 35%.
In the data set “in vivo”, `OC1CCN(CCCNc2nn(CCCN3CCOCC3)c3ccc(Cl)cc23)CC1` [(118), 1-(3-Morpholinopropyl)-3-[3-(4-hydroxypiperidino)propylamino]-5-chloroindazole] came in with an LD50 of 287 mg/kg. For the same molecule, the inhibition in vivo at 100 mg/kg in data set [1] stood at 31%.
`CCCCN(CCCC)CCCNc1nn(CCCN(CC)CC)c2ccc(Cl)cc12` [(98), 1-(3-Diethylaminopropyl)-3-(3-di-n-butylaminopropylamino)-5-chloroindazole] came in with an LD50 in the data set “in vivo” of 286 mg/kg. In data set [1], the inhibition in vivo at 100 mg/kg was found to be 32%.
Taken in the same sequence, the figures for `CC(CCNc1nn(CCCN2CCCCC2)c2ccc(O)cc12)N1CCCCC1` (centres unmarked) [(133), 1-(3-Piperidinopropyl)-3-(3-piperidinobutylamino)-5-hydroxyindazole] were 330 mg/kg and 28%.
The molecule `CC(CCNc1nn(CCC(C)N2CCCCC2)c2ccc(Cl)cc12)N(C)C` (centres unmarked) [(107), 1-(3-Piperidinobutyl)-3-(3-dimethylaminobutylamino)-5-chloroindazole] displayed an LD50 in “in vivo” of 231 mg/kg. 100 mg/kg produced 22% inhibition in vivo in data set [1].
In the data set “in vivo”, `CC(CCNc1n[nH]c2ccccc12)N1CCOCC1` (centres unmarked) [(153), 3-(3-Morpholinobutylamino)indazole] registered an LD50 of 331 mg/kg. The inhibition in vivo at 100 mg/kg in data set [1] turned out to be 51%.
`CCN(CC)CCCNc1nn(CCCN(CC)CC)c2ccc(C)cc12` [(95), 1-(3-Diethylaminopropyl)-3-(3-diethylaminopropylamino)-5-methylindazole] came in with an LD50 in “in vivo” of 211 mg/kg. Further, the inhibition in vivo at 100 mg/kg in data set [1] turned out to be 29%.

What is called LD50 is the dose expected to kill half of the subjects tested. The inhibition in vivo is the relative decrease from the control value, in per cent.
